Measurements from ChEMBL document CHEMBL3046698, “Synergistic application of target structure-based alignment and 3D-QSAR study of protein tyrosine phosphatase 1B (PTP1B) inhibitors” (Med Chem Res, 2011).
Several values for one entry are separate records, joined by “and”; a condition that tells them apart may be missing. Equal entries are not always repeated.

Molecular target: T1, Tyrosine-protein phosphatase non-receptor type 1 (Homo sapiens, UniProt P18031)
T1 sequence (P18031 whole entry): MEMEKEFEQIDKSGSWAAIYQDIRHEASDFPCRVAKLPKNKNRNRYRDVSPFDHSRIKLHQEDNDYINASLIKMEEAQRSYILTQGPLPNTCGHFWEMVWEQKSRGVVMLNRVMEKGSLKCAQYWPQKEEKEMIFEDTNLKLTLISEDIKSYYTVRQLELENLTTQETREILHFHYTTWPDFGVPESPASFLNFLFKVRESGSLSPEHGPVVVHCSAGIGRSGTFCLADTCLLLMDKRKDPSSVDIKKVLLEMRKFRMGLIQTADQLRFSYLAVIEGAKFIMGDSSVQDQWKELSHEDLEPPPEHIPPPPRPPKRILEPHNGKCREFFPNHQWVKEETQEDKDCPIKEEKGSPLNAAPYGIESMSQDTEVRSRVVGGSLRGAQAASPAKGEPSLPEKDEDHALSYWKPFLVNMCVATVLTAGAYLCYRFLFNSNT
Description: Inhibition of PTP1B (unknown origin)

Row | SMILES | Ki
1 | CC(=O)C(=O)N(c1ccccc1C(=O)O)c1cccc(C)c1C | 93.3 µM and 93 µM
2 | CC(=O)C(=O)N(c1ccccc1C(=O)O)c1cccc2ccccc12 | 24 µM
3 | CC(=O)C(=O)N(c1ccc2ccccc2c1)c1ccccc1C(=O)O | 38.9 µM and 39 µM
4 | CC(=O)C(=O)N(c1ccccc1C(=O)O)c1cccc2c1CCCC2 | 74.1 µM and 74 µM
5 | CCc1ccccc1N(C(=O)C(C)=O)c1ccccc1C(=O)O | 60.3 µM and 60 µM
6 | CC(=O)C(=O)N(c1ccccc1C(=O)O)c1ccccc1C(C)C | 35.5 µM and 35 µM
7 | CC(=O)C(=O)N(c1ccccc1CCO)c1ccccc1C(=O)O | 17 µM
8 | CC(=O)C(=O)N(c1ccccc1/C=C/C(N)=O)c1ccccc1C(=O)O | 11 µM
9 | CC(=O)C(=O)N(c1ccccc1C(=O)O)c1ccccc1N1CCCCC1 | 14.1 µM and 14 µM

Other lines, results leading:

Row | Ki | SMILES
10 | 0.162 µM | COC(=O)c1c(O)cccc1OCCCCNC(=O)[C@H](Cc1ccc(OC(C)C(=O)O)c(C(=O)O)c1)NC(=O)[C@H](Cc1ccccc1)NC(=O)OC(C)(C)C (stereo partly specified)
11 | 3.39 µM and 3.4 µM | CCc1cc(C[C@H](NC(C)=O)C(=O)NCCCCC(=O)NCCc2ccccc2)ccc1N(C(=O)C(=O)O)c1ccccc1C(=O)O
12 | 1.29 µM and 1.3 µM | CCc1cc(C[C@H](NC(C)=O)C(=O)NCCCCC(=O)NC(Cc2ccccc2)C(N)=O)ccc1N(C(=O)C(=O)O)c1ccccc1C(=O)O (stereo partly specified)
13 | 1.74 µM and 1.7 µM | CCc1cc(C[C@H](NC(C)=O)C(=O)N[C@H](CCSC)C(=O)O)ccc1N(C(=O)C(=O)O)c1ccccc1C(=O)O
14 | 1.2 µM | CCc1cc(C[C@H](NC(C)=O)C(=O)NCc2ccc(Cl)cc2)ccc1N(C(=O)C(=O)O)c1ccccc1C(=O)O
15 | 4.79 µM and 4.7 µM | CCc1cc(C[C@H](NC(C)=O)C(=O)NCc2ccc(OC)cc2)ccc1N(C(=O)C(=O)O)c1ccccc1C(=O)O
16 | 13.8 µM | COC(=O)c1c(O)cccc1OCCCCNC(=O)[C@H](Cc1ccc(OC(C(N)=O)C(=O)O)cc1)NC(=O)OC(C)(C)C (stereo partly specified)
17 | 17 µM | CC(=O)C(=O)N(c1ccccc1C(=O)O)c1cccc2ccc(O)cc12
18 | 24 µM | CC(=O)C(=O)N(c1ccccc1Cc1ccccc1)c1ccccc1C(=O)O
19 | 15.1 µM and 15.2 µM | COC(=O)c1c(O)cccc1OCCCCNC(=O)C(Cc1ccc(N(CC(C(=O)O)c2ccccc2)C(=O)C(=O)O)cc1)NC(=O)OC(C)(C)C (stereo unspecified)
20 | 1.82 µM and 1.8 µM | CCC(CC(=O)O)N(C(=O)C(=O)O)c1ccc(CC(NC(=O)OC(C)(C)C)C(=O)NCCCCOc2cccc(O)c2C(=O)OC)cc1 (stereo unspecified)
21 | 8.51 µM | COC(=O)c1c(O)cccc1OCCCCNC(=O)[C@H](Cc1ccc(OC(C(=O)O)C(=O)NC2CC2)cc1)NC(=O)OC(C)(C)C (stereo partly specified)
